Data from US12098180B2, “Compositions and uses of vasoactive intestinal peptide (VIP) antagonists” (EMORY UNIVERSITY, priority 2018, dated 2024).

Legend:
[1] = tested on: T cells from luciferase+C57/BL6 mice; assay: T cell proliferation in short-term culture with plate bound anti-CD3 antibody and IL-2; format: cell-based
Description: T cells from luciferase+C57/BL6 mice were harvested and cultured in 96-well plate with 1 μg/ml anti-CD3 antibody and 30 U/ml IL-2 in the presence of original VIPhyb, Ant-1, Ant-2, Ant-3, Ant-4, Ant-5, Ant-6, Ant-7 or Ant-8 at 1 μM.
T cells from luciferase+C57/BL6 mice were harvested and cultured in 96-well plate with either 0.5 μg/ml or 1 μg/ml anti-CD3 antibody and 30 U/ml IL-2 in the presence of original VIPhyb or Ant-8 at 0.5 μM, 1 μM or 3 μM.
The peptides (SEQ ID NO: 3-10 in FIG. 1) were added to short-term cultures of luciferase positive T-cells cultured in the presence of plate bound anti CD3 antibody in 96 well plates. The concentration of anti-CD3 antibody was either 0.5 mcg per ml or 1 mcg per ml. The T-cells from luciferase transgenic mice were added in the presence of low-dose IL-2 and 0.5 micromolar, 1 micromolar, or 3 micromolar concentrations of the original VIPhyb peptide or the alternative ANT-1 to ANT-8 peptide sequences were added.

[2] = tested on: T cells from Chronic lymphocytic leukemia (CLL) donors; assay: Ex vivo expansion of T cells with anti-CD3/28 beads and IL-2; format: cell-based; conditions: anti-CD3/28 beads and 30 U/mL IL-2
acute leukemia = conditions: Oncoimmunology, 2017, 6(5):e1304336; cited from earlier work

Sequence	T-cell proliferation using lower concentrations of anti-CD3 ([1]; lower anti-CD3 concentration (0.5 mcg per ml), compared to control cultures with plate bound anti-CD3 and no added peptides)	antagonist activity compared to the native VIPhyb ([1]; overall conclusion from the T-cell proliferation cultures)	T-cell proliferation at 24 hours ([1]; peptide at 0.5, 1 and 3 micromolar, compared to the original VIPhyb peptide at the same concentrations)	yields of T cells during ex vivo expansion [2]	autologous anti-leukemia T cell response (acute leukemia)
KPRRPYTDNYTRLRKQMAVKKYLNLILN [ANT-8, VIPhyb variant with S to L substitution at position 25]	more modest and not significantly different from control cultures	improved antagonist activity	enhanced T-cell proliferation	enhance yields of T cells	
KPRRPYTDNYTRLRKQMAVKKYLNSILN [VIPhyb, chimeric peptide VIP antagonist; six N-terminal amino acids of native VIP replaced]					enhances the autologous anti-leukemia T cell response
